Experimental data as given in patent publication US4137314A, “7-Dithioacetamido cephalosporins and pharmaceutical compositions and methods employing them having antibacterial activity” (SmithKline Corporation, priority 1977, dated 1979).
≈ marks a conversion by molar mass, not a printed value. Like-named read-outs stand apart in the source and are kept apart here.

Legend:
Assay in all cases: MIC, standard agar inclusion method
Type in all cases: cell-based
[1] = system: Kleb. pneumo. SK4200
[2] = system: Proteus morgani 179
[3] = system: S. aureus SK23390; details: Staphylococcus aureus
[4] = system: Serratia marc. ATCC13880
[5] = system: E. coli HH33779; details: Escherichia coli
[6] = system: S. aureus HH127; details: Staphylococcus aureus
[7] = system: S. aureus Villaluz; details: Staphylococcus aureus
[8] = system: E. coli SK12140; details: Escherichia coli
[9] = system: Pseudo aeruginosa HH63
[10] = system: Entero. aerogenes 13048; details: Klebsiella aerogenes
[11] = system: Strep. faecalis HH34358; details: Enterococcus faecalis
[12] = system: Shegella paradysenteriae HH117
[13] = system: Salmonella paratuphi ATCC12176
[14] = system: Kleb. pneumo. SK1200
[15] = system: Entero. cloacae HH31254; details: Enterobacter cloacae
[16] = Entero. cloacae HH31254, agar inclusion, read-out: MIC
[17] = Entero. aerogenes 13048, agar inclusion, read-out: MIC

| Structure (SMILES) | MIC [1] | MIC [2] | MIC [3] | MIC [4] | MIC [5] | MIC [6] | MIC [7] | MIC [8] | MIC [9] | MIC [10]; 13048 | MIC [11] | MIC [12] | MIC [13] | MIC [14] | MIC [15, 16] | MIC [10, 17] | MIC ([15]; HH31254) | MIC ([2]; Proteus morgani 179, agar inclusion, read-out: MIC) |
| --- | --- | --- | --- | --- | --- | --- | --- | --- | --- | --- | --- | --- | --- | --- | --- | --- | --- | --- |
| Cc1nnc(SCC2=C(C(=O)O)N3C(=O)[C@@H](NC(=O)Cn4cnnn4)[C@H]3SC2)s1 [Cefazolin, reference compound] | 3.1 µg/mL (≈ 6.82 µM) | > 200 µg/mL | 0.4 µg/mL (≈ 0.88 µM) | > 200 µg/mL | 3.1 µg/mL (≈ 6.82 µM) | 0.4 µg/mL (≈ 0.88 µM) | 25 µg/mL (≈ 55 µM) | 1.6 µg/mL (≈ 3.52 µM) | > 200 µg/mL | 1.6 µg/mL (≈ 3.52 µM) | 6.3 µg/mL (≈ 13.9 µM) | 0.8 µg/mL (≈ 1.76 µM) | 1.6 µg/mL (≈ 3.52 µM) |  |  |  |  |  |
| CSSCC(=O)NC1C(=O)N2C(C(=O)O)=C(CSc3nnnn3C)CSC12 (stereo not drawn) [A, 7-methyldithioacetamido-3-(1-methyltetrazol-5-yl-thiomethyl)-3-cephem-4-carboxylic acid] | 3.1 µg/mL (≈ 6.91 µM) | > 200 µg/mL | 0.4 µg/mL (≈ 0.892 µM) | > 200 µg/mL | 6.3 µg/mL (≈ 14 µM) | 0.4 µg/mL (≈ 0.892 µM) | 6.3 µg/mL (≈ 14 µM) | 3.1 µg/mL (≈ 6.91 µM) | > 200 µg/mL |  | 12.5 µg/mL (≈ 27.9 µM) | 0.8 µg/mL (≈ 1.78 µM) | 0.8 µg/mL (≈ 1.78 µM) | 0.8 µg/mL (≈ 1.78 µM) | 1.6 µg/mL (≈ 3.57 µM) | 3.1 µg/mL (≈ 6.91 µM) |  |  |
| Cn1nnnc1SCC1=C(C(=O)O)N2C(=O)C(NC(=O)CSSC(Cl)(Cl)Cl)C2SC1 (stereo not drawn) [B, 7-(trichloromethyldithioacetamido)-3-(1-methyltetrazol-5-ylthiomethyl)-3-cephem-4-carboxylic acid] |  | > 200 µg/mL | 3.1 µg/mL (≈ 5.62 µM) | > 200 µg/mL | 100 µg/mL (≈ 181 µM) | 3.1 µg/mL (≈ 5.62 µM) | 50 µg/mL (≈ 90.6 µM) | 12.5 µg/mL (≈ 22.6 µM) | > 200 µg/mL |  | 50 µg/mL (≈ 90.6 µM) | 12.5 µg/mL (≈ 22.6 µM) | 6.3 µg/mL (≈ 11.4 µM) | 6.3 µg/mL (≈ 11.4 µM) |  | 100 µg/mL (≈ 181 µM) | 12.5 µg/mL (≈ 22.6 µM) |  |
| CSSCC(=O)NC1C(=O)N2C(C(=O)O)=C(COC(C)=O)CSC12 (stereo not drawn) [D, 7-(methyldithioacetamido)-cephalosporanic acid] | 3.1 µg/mL (≈ 7.9 µM) | > 200 µg/mL | 0.2 µg/mL (≈ 0.51 µM) | > 200 µg/mL | 12.5 µg/mL (≈ 31.8 µM) | 0.2 µg/mL (≈ 0.51 µM) | 3.1 µg/mL (≈ 7.9 µM) | 6.3 µg/mL (≈ 16.1 µM) | > 200 µg/mL |  | 12.5 µg/mL (≈ 31.8 µM) | 1.6 µg/mL (≈ 4.08 µM) | 6.3 µg/mL (≈ 16.1 µM) | 3.1 µg/mL (≈ 7.9 µM) | 25 µg/mL (≈ 63.7 µM) | 25 µg/mL (≈ 63.7 µM) |  |  |
| Cn1nnnc1SCC1=C(C(=O)O)N2C(=O)C(NC(=O)CSSC(F)(F)F)C2SC1 (stereo not drawn) [C] | 6.3 µg/mL (≈ 12.5 µM) |  | 3.1 µg/mL (≈ 6.17 µM) | > 100 µg/mL | 25 µg/mL (≈ 49.7 µM) | 3.1 µg/mL (≈ 6.17 µM) | 6.3 µg/mL (≈ 12.5 µM) | 12.5 µg/mL (≈ 24.9 µM) | > 100 µg/mL |  | 50 µg/mL (≈ 99.5 µM) | 3.1 µg/mL (≈ 6.17 µM) | 6.3 µg/mL (≈ 12.5 µM) | 3.1 µg/mL (≈ 6.17 µM) | 12.5 µg/mL (≈ 24.9 µM) | 100 µg/mL (≈ 199 µM) |  | > 100 µg/mL |
